The NIST ThermoML archive (doi:10.1021/acs.jced.8b00765)
“And” between values parts separate entries of the source, which are not always exact repeats. Identical values can stand only once. Numbers after ± are expanded uncertainties.

Legend:
[1] = Liquid; for vapor or sublimation pressure: Closed cell (Static) method; for mass density: 101.33 kPa, Vibrating tube method
[2] = refractive index (Na D-line) (dimensionless); settings: 293.15 K; 101.33 kPa; Liquid; Standard Abbe refractometry

| SMILES | vapor or sublimation pressure ([1]; 298.18 K) [kPa] | vapor or sublimation pressure ([1]; 298.19 K) [kPa] | vapor or sublimation pressure ([1]; 303.16 K) [kPa] | vapor or sublimation pressure ([1]; 303.18 K) [kPa] | vapor or sublimation pressure ([1]; 308.15 K) [kPa] | refractive index [2] | vapor or sublimation pressure ([1]; 293.18 K) | vapor or sublimation pressure ([1]; 303.17 K) [kPa] | mass density ([1]; 313.15 K) [kg/m3] | vapor or sublimation pressure ([1]; 313.16 K) [kPa] | other results |
| --- | --- | --- | --- | --- | --- | --- | --- | --- | --- | --- | --- |
| C1CCCCC1 [cyclohexane] | 13.4 ± 0.3 | 13.1 ± 0.3 | 16.4 ± 0.3 | 16.4 ± 0.3 | 20.3 ± 0.3 | 1.426 ± 0.001 |  |  |  |  | vapor or sublimation pressure ([1]; 293.17 K): 10.4 ± 0.3 kPa; vapor or sublimation pressure ([1]; 293.21 K): 10.6 ± 0.3 kPa; mass density ([1]; 308.15 K): 765 ± 1 kg/m3; vapor or sublimation pressure ([1]; 313.17 K): 24.9 ± 0.3 kPa |
| C=CCCCC [hex-1-ene] | 24.8 ± 0.3 |  | 30.5 ± 0.3 |  |  | 1.388 ± 0.001 | 19.9 ± 0.3 kPa and 20 ± 0.3 kPa | 30.6 ± 0.3 | 655 ± 1 | 45.1 ± 0.3 | vapor or sublimation pressure ([1]; 308.16 K): 37.2 ± 0.3 kPa; vapor or sublimation pressure ([1]; 313.15 K): 45.1 ± 0.3 kPa |
| CCCCC [pentane] | 68.5 ± 0.4 | 68.5 ± 0.4 |  | 82.2 ± 0.4 |  | 1.358 ± 0.001 | 56.6 ± 0.4 kPa | 82.2 ± 0.4 |  |  | vapor or sublimation pressure ([1]; 288.18 K): 46.5 ± 0.3 kPa; mass density ([1]; 293.15 K): 626 ± 1 kg/m3; vapor or sublimation pressure ([1]; 293.2 K): 56.6 ± 0.4 kPa; vapor or sublimation pressure ([1]; 308.17 K): 97.9 ± 0.4 kPa |
| CC(C)O [propan-2-ol] |  |  | 7.9 ± 0.3 |  | 10.5 ± 0.3 | 1.377 ± 0.001 | 4.2 ± 0.3 kPa |  | 768 ± 1 | 14 ± 0.3 | vapor or sublimation pressure ([1]; 293.16 K): 4.2 ± 0.3 kPa; vapor or sublimation pressure ([1]; 298.17 K): 5.8 ± 0.3 kPa; vapor or sublimation pressure ([1]; 303.15 K): 7.8 ± 0.3 kPa; vapor or sublimation pressure ([1]; 313.14 K): 13.9 ± 0.3 kPa |
